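Exposure lasted 48 hours, with cells grown in 96-well plates and compounds tested at five concentrations. TGI: concentration producing complete growth inhibition.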
How the values were obtained:
Assay in all cases: inhibition of tumour cell growth, NCI panel, 48 h
SW-620 colon = tested on: SW-620 colon
RPMI-8226 leukemia = tested on: RPMI-8226 leukemia
SK-MEL-28 melanoma = tested on: SK-MEL-28 melanoma
OVCAR-3 ovarian = tested on: OVCAR-3 ovarian
EKVX NSCLC = tested on: EKVX NSCLC
KM12 colon = tested on: KM12 colon
UO-31 renal = tested on: UO-31 renal
IGROV1 ovarian = tested on: IGROV1 ovarian
OVCAR-8 ovarian = tested on: OVCAR-8 ovarian
LOX IMVI melanoma = tested on: LOX IMVI melanoma
HT29 colon = tested on: HT29 colon
U251 CNS = tested on: U251 CNS
SNB-19 CNS = tested on: SNB-19 CNS
MDA-MB-231 breast = tested on: MDA-MB-231 breast
BT-549 breast = tested on: BT-549 breast

SMILES | TGI (SW-620 colon) [µM] | TGI (RPMI-8226 leukemia) [µM] | TGI (SK-MEL-28 melanoma) [µM] | TGI (OVCAR-3 ovarian) [µM] | TGI (EKVX NSCLC) [µM] | TGI (KM12 colon) [µM] | TGI (UO-31 renal) [µM] | TGI (IGROV1 ovarian) [µM] | TGI (OVCAR-8 ovarian) [µM] | TGI (LOX IMVI melanoma) [µM] | TGI (HT29 colon) [µM] | TGI (U251 CNS) [µM] | TGI (SNB-19 CNS) [µM] | TGI (MDA-MB-231 breast) [µM] | TGI (BT-549 breast) [µM]
COc1cc(Br)c(/C=N/N=C(\N)NO)cc1OC | > 100 | > 100 | > 100 | > 100 | > 100 | > 100 | > 100 | > 100 | 76 | 61.2 | 86.3 | > 100 | > 100 |  | 
COc1cc(Br)c(C=Nc2cccc3ccc(OS(=O)(=O)c4ccc([N+](=O)[O-])cc4)cc23)cc1OC | > 100 | > 100 | > 100 | > 100 | > 100 | > 100 | > 100 | > 100 | > 100 | > 100 | > 100 | > 100 | > 100 |  | 
CC1(C)COC(c2cccc(C(=O)c3ccccc3)c2)=N1 | > 100 | > 100 | > 100 | > 100 | > 100 | > 100 | > 100 | > 100 | > 100 | > 100 | > 100 | > 100 | > 100 | > 100 | 
CCC(=O)NC(NNS(=O)(=O)c1ccc(C)cc1)(C(F)(F)F)C(F)(F)F | > 100 | > 100 | 61.5 | > 10 | > 100 | > 100 | > 100 | > 100 | > 100 | > 100 |  | > 10 | > 100 | > 100 | 91.8
CN(C)Cc1cc(C(=O)/C=C/c2ccc(Cl)cc2Cl)cc(CN(C)C)c1O | 11.3 | > 100 | 19.1 | 11.6 | 19.7 | 4.51 | 6.01 | 10.4 | 11 | 2.49 | 6.91 | 15.7 | 19.9 | 6.53 | 
COC(=O)C(C(=O)C(=O)Nc1nc2ccc(OC)cc2s1)c1cnc2ccccc2n1 (stereo unspecified) | > 100 | > 100 | > 100 | > 100 | > 100 | > 100 | > 100 | > 100 |  | > 100 | > 100 | > 100 | > 100 |  | 
O=C1CSc2ccnc(=O)n21 | > 100 | > 100 | > 100 |  | > 100 |  | > 100 | > 100 | > 100 |  |  | > 100 | > 100 |  | > 100
CCCCCCCCCCCC(=O)OCC(O)CO (stereo unspecified) | > 100 |  | > 100 | > 100 | > 100 | 75.6 | > 100 |  | > 100 | > 100 | > 100 | > 100 | > 100 | > 100 | > 100
N#Cc1ccc(N=NN2CCCC2)cc1 | > 100 | > 100 |  | > 100 | > 100 | > 100 | > 100 | > 100 | > 100 | > 100 |  | > 100 | > 100 | > 100 | > 100
NNC(=O)c1cc(Cl)ccc1NC(=O)C12CC3CC(CC(C3)C1)C2 | > 100 | 69.7 | > 100 | > 100 |  | > 100 | 45.4 | > 100 | > 100 | > 100 | 48 | > 100 | 43.1 | > 100 | > 100
CC[n+]1c(/C=C/c2cc(C(=O)OC)n3c2sc2ccccc23)sc2ccccc21 |  |  |  | 42.4 | 38.9 | 29.1 | 35.1 | 32.9 |  | 40.5 | 33 |  | 44 |  | 
O=C1NCC2(CCN(CC3COc4ccccc4O3)CC2)N1c1ccccc1 (stereo unspecified) | > 100 | > 100 | > 100 | > 100 | > 100 | > 100 | > 100 | > 100 | > 100 | > 100 | > 100 | > 100 | > 100 | > 100 | 
CCOC(=O)c1sc2c(c1OC(=O)c1ccco1)c(=O)n(-c1ccccc1)c(=S)n2-c1ccccc1 | > 100 | 78.5 | > 100 | 76.9 | 55.4 | > 100 | 2.71 | 36.3 | 70.8 | 61.7 | > 100 | > 100 | > 100 | > 100 | 
Nc1ccc(C(=O)NN2C(=O)C(Cl)C2c2ccc(O)cc2)cc1 (stereo unspecified) | 44.7 | > 100 | 40.7 | 29.2 | 36.1 | 47.2 | 57.9 | 32.9 | 68.8 | 22.7 | 45.1 | 29.6 | 31.4 |  | 
O=C(O)c1cc(-c2ccc3cc(O)c(O)cc3c2)ccc1O | > 12.5 |  | > 12.5 | > 12.5 |  | > 12.5 | > 12.5 | > 12.5 | > 12.5 |  | > 12.5 | > 12.5 | > 12.5 | > 12.5 | > 12.5
CCc1cccc(CC)c1Nc1nc(-c2ccccc2-c2ccccc2)cs1 | > 100 | > 100 | > 100 | > 100 | > 100 | > 100 | > 100 | > 100 |  | > 100 |  | > 100 | > 100 | > 100 | 84.8
O=C(CC(=O)n1nc(-c2ccccc2)c(N=Nc2ccc([N+](=O)[O-])cc2)c1-c1ccccc1)Nc1ccc(Cl)cc1 | > 100 | > 100 | 80.8 | 66.1 | > 100 | > 100 | 45.1 | > 100 | > 100 | > 100 | 58.5 | 63.1 | 81.6 |  | 
CCN1C(c2ccccc2)=CC(c2ccccc2)(C(Cl)(Cl)Cl)C=C1c1ccccc1 | > 100 | > 100 | 67 | > 100 | 83 | 16.2 | > 100 | 27.9 | > 100 | 56.7 | 21.8 | > 100 | > 100 | > 100 | 

From PubChem BioAssay (NCI)
